# In US20220324865A1 (Bayer Aktiengesellschaft, priority 2018, published 2022):
# Molecular target: T1, human EP3 receptor (Homo sapiens, UniProt P43115)
# T1 construct: expressed in transfected cells; host or cells: CHO K1 (Chinese Hamster Ovary), stably co-transfected with Galpha16 and mitochondrial clytin
# T1 sequence (P43115 1-390): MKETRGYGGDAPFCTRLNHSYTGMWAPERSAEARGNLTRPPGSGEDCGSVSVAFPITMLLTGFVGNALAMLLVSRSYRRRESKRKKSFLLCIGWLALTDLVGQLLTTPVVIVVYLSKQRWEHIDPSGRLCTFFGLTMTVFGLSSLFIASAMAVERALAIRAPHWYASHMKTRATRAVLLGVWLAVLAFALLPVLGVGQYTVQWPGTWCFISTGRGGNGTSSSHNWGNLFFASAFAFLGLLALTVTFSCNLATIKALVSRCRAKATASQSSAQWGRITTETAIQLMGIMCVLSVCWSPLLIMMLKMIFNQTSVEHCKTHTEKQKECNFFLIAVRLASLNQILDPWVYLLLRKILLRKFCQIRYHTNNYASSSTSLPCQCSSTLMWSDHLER
# Experiment: Cellular in vitro assay for determining EP3 receptor activity (human EP3 cell line, sulprostone-stimulated calcium luminescence)
# Format: cell-based
# Settings: CHO cells expressing human EP3 and mitochondrial Clytin; antagonist mode, sulprostone at EC50; read-out: EP3 CHO mtCLY ANTAG IC50
# How it was run: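 CHO K1 cells stably expressing human EP3 with Gα16 and mitochondrial Clytin, loaded overnight with coelenterazine. Compounds added 10 min before sulprostone at its EC50; antagonism read immediately as reduced calcium-driven luminescence, quadruplicate points.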
row,Structure (SMILES),IC50 [nM]
1,Cc1ccc(-c2cn3nc(C(=O)N[C@@H](c4ccc(F)cc4)C(C)(C)O)cc3c(=O)[nH]2)c(F)c1C [6-646],5.4
2,"CCN1CC(NC(=O)c2nn3cc(-c4ccc(C)c(C)c4)[nH]c(=O)c3c2C(F)(F)F)(c2ccc(F)cc2)C1 [Example 1-176, 6-(3,4-Dimethylphenyl)-N-[1-ethyl-3-(4-fluorophenyl)azetidin-3-yl]-4-oxo-3-(trifluoromethyl)-4,5-dihydropyrazolo[1,5-a]pyrazine-2-carboxamide]",1.67
3,COc1ccc(CCNC(=O)c2cc3c(=O)[nH]c(-c4ccc5ccccc5c4)cn3n2)cc1OC [6-75],8.63
4,"Cc1cc(-c2cn3nc(C(=O)NCC(N)C(F)(F)F)c(C4CC4)c3c(=O)[nH]2)ccc1C(F)(F)F (single isomer, unassigned) [6-131]",10.1
5,COc1ccc(CNC(=O)c2cc3c(=O)[nH]c(-c4ccc(C)c(Cl)c4)cn3n2)cc1OC [6-80],2.2
6,CC(C)c1c(C(=O)NC2(c3ccc(F)cc3)CN(C)C2)nn2cc(-c3cccc(Cl)c3)[nH]c(=O)c12 [6-684],3.35
7,O=C(N[C@@H](c1ccc(F)cc1)C(F)(F)CO)c1nn2cc(-c3ccc(Cl)c(F)c3)[nH]c(=O)c2c1C(F)F [6-631],8.55
8,"Cc1c(C(=O)N[C@@H](C)c2ccccc2)nn2c(C)c(-c3ccc4ccccc4c3)[nH]c(=O)c12 [Example 3-22, 3,7-Dimethyl-6-(naphthalen-2-yl)-4-oxo-N-[(7S)-1-phenylethyl]-4,5-dihydropyrazolo[1,5-a]pyrazine-2-carboxamide]",2.35
9,CC[C@H](C)NC(=O)c1nn2cc(-c3ccc(Cl)c(C)c3)[nH]c(=O)c2c1C(F)(F)F [6-216],5.2
10,CCN1CCC(NC(=O)c2nn3cc(-c4ccc(C)c(F)c4)[nH]c(=O)c3c2C2CC2)(C(F)(F)F)C1 (racemic) [6-404],5.95
11,Cc1cc(-c2cn3nc(C(=O)NC4(c5ccc(F)cc5)CN(C)C4)c(C4CC4)c3c(=O)[nH]2)c(F)cc1Cl [6-593],8.43
12,Cc1ccc(-c2cn3nc(C(=O)N[C@H](C)C4CC4)c(C4CC4)c3c(=O)[nH]2)cc1C [6-438],0.55
13,CC[C@@H](C)NC(=O)c1nn2cc(-c3ccc(Cl)c(C)c3)[nH]c(=O)c2c1C(F)(F)F [6-227],6.67
14,Cc1ccc(-c2cn3nc(C(=O)NC(CO)C(F)(F)F)c(C4CC4)c3c(=O)[nH]2)cc1C(F)(F)F (racemic) [6-248],2.45
15,CC[C@@H](COC)NC(=O)c1nn2cc(-c3ccc(Cl)c(C)c3)[nH]c(=O)c2c1C1CC1 [6-327],0.48
16,"Cc1cccc2ncc(-c3cn4nc(C(=O)N[C@H](C)c5ccccc5)c(C(C)C)c4c(=O)[nH]3)cc12 [Example 4-27, 6-(5-Methylquinolin-3-yl)-4-oxo-N-[(1R)-1-phenylethyl]-3-(propan-2-yl)-4,5-dihydropyrazolo[1,5-a]pyrazine-2-carboxamide]",1.2
17,"Cc1cc(-c2cn3nc(C(=O)NCC(O)C(F)(F)F)c(C4CC4)c3c(=O)[nH]2)ccc1Cl (single isomer, unassigned) [6-314]",0.85
18,"Cc1cc(-c2cn3nc(C(=O)N[C@@H](c4ccc(F)cc4)C(C)(C)O)c(C4CC4)c3c(=O)[nH]2)ccc1Cl [Example 1-173, 6-(4-Chloro-3-methylphenyl)-3-cyclopropyl-N-[(1S)-1-(4-fluorophenyl)-2-hydroxy-2-methylpropyl]-4-oxo-4,5-dihydropyrazolo[1,5-a]pyrazine-2-carboxamide]",0.73
19,Cc1ccc(-c2cn3nc(C(=O)N[C@H](CN4CC[C@@H](F)C4)c4ccccc4)cc3c(=O)[nH]2)cc1F [6-637],3.6
20,"CC(C)(C)OC(=O)N1CC(NC(=O)c2cc3c(=O)[nH]c(-c4ccc5ccccc5c4)cn3n2)(c2ccc(F)cc2)C1 [Example 1-47, tert.-Butyl 3-(4-fluorophenyl)-3-({[6-(naphthalen-2-yl)-4-oxo-4,5-dihydropyrazolo[1,5-a]pyrazin-2-yl]carbonyl}amino)azetidine-1-carboxylate]",4.65
21,"COCc1c(C(=O)N[C@H](C)c2ccc(F)cc2)nn2cc(-c3ccc4ccccc4c3)[nH]c(=O)c12 [Example 1-20, N-[(1R)-1-(4-Fluorophenyl)ethyl]-3-(methoxymethyl)-6-(naphthalen-2-yl)-4-oxo-4,5-dihydropyrazolo[1,5-a]pyrazine-2-carboxamide]",1.09
22,Cc1cc(-c2cn3nc(C(=O)NCCN(CC(F)F)C4CC4)c(C4CC4)c3c(=O)[nH]2)ccc1C(F)(F)F [6-128],9.25

row,Structure (SMILES),IC50 [nM]
1,Cc1ccc(-c2cn3nc(C(=O)N[C@@H](c4ccc(F)cc4)C(C)(C)O)c(C(F)(F)C(F)(F)F)c3c(=O)[nH]2)cc1F [6-492],1.8
2,"N#Cc1c(C(=O)NC2Cc3ccccc3C2)nn2cc(-c3ccc4ccccc4c3)[nH]c(=O)c12 [Example 3-55, 3-Cyano-N-(2,3-dihydro-1H-inden-2-yl)-6-(naphthalen-2-yl)-4-oxo-4,5-dihydropyrazolo[1,5-a]pyrazine-2-carboxamide]",7.2
3,Cc1ccc(-c2cn3nc(C(=O)NCC(O)(C(F)(F)F)C(F)(F)F)c(C4CC4)c3c(=O)[nH]2)cc1C [6-434],1.95
4,Cc1ccc(-c2cn3nc(C(=O)NC(c4ccc(F)cc4)C4(O)CC4)c(C4CC4)c3c(=O)[nH]2)cc1F (racemic) [6-381],1.52
5,O=C(NC(c1ccc(F)cc1)C1(O)CC1)c1nn2cc(-c3ccc(Cl)c(Cl)c3)[nH]c(=O)c2c1C1CC1 (racemic) [6-422],0.7
6,O=C(NCCN(CC(F)F)C1CC1)c1nn2cc(-c3ccc4ccccc4c3)[nH]c(=O)c2c1C(F)(F)F [6-527],3.37
7,Cc1ccc(-c2cn3nc(C(=O)NCc4ncc(C(F)(F)F)cc4Cl)cc3c(=O)[nH]2)cc1C [6-9],5.75
8,"Cc1cccc2ncc(-c3cn4nc(C(=O)NC(CN(C)C)c5ccccc5)c(C(C)C)c4c(=O)[nH]3)cc12 (centres unmarked) [Example 4-1, N-[2-(Dimethylamino)-1-phenylethyl]-3-isopropyl-6-(5-methyl-3-quinolyl)-4-oxo-5H-pyrazolo[1,5-a]pyrazine-2-carboxamide]",1.75
9,C[C@H](NC(=O)c1nn2cc(-c3ccc(Cl)c(F)c3)[nH]c(=O)c2c1C1CC1(F)F)C1CC1 (some centres unmarked) [6-566],2.25
10,"COc1ccc(C(NC(=O)c2nn3cc(-c4cnc5cccc(C)c5c4)[nH]c(=O)c3c2C(C)C)C2CC2)cc1 (centres unmarked) [Example 4-78, N-[Cyclopropyl(4-methoxyphenyl)methyl]-3-isopropyl-6-(5-methyl-3-quinolyl)-4-oxo-5H-pyrazolo[1,5-a]pyrazine-2-carboxamide]",1.55
11,Cc1ccc(-c2cn3nc(C(=O)NCC(O)C(F)(F)F)c(C(F)(F)F)c3c(=O)[nH]2)cc1C (racemic) [6-115],0.95
12,"CC(NC(=O)c1cc2c(=O)[nH]c(-c3ccc4ccccc4c3)cn2n1)c1ccc(O)cc1 (centres unmarked) [Example 1-136, N-[1-(4-Hydroxphenyl)ethyl]-6-(2-naphthyl)-4-oxo-5H-pyrazolo[1,5-a]pyrazine-2-carboxamide]",5.8
13,"Cc1cccc2ncc(-c3cn4nc(C(=O)NC(C)c5cccc(Br)c5)c(C(C)C)c4c(=O)[nH]3)cc12 (centres unmarked) [Example 4-62, N-[1-(3-Bromophenyl)ethyl]-3-isopropyl-6-(5-methyl-3-quinolyl)-4-oxo-5H-pyrazolo[1,5-a]pyrazine-2-carboxamide]",2.05
14,"COc1ccc(C(NC(=O)c2nn3c(C)c(-c4ccc5ccccc5c4)[nH]c(=O)c3c2C)C2CC2)cc1 (centres unmarked) [Example 3-35, N-[Cyclopropyl(4-methoxyphenyl)methyl]-3,7-dimethyl-6-(2-naphthyl)-4-oxo-5H-pyrazolo[1,5-a]pyrazine-2-carboxamide]",5.05
15,"Cc1cccc2ncc(-c3cn4nc(C(=O)N[C@@H](C)c5cnccn5)c(C(C)C)c4c(=O)[nH]3)cc12 [Example 4-28, 6-(5-Methylquinolin-3-yl)-4-oxo-3-(propan-2-yl)-N-[(7S)-1-(pyrazin-2-yl)ethyl]-4,5-dihydropyrazolo[1,5-a]pyrazine-2-carboxamide]",2.15
16,Cc1ccc(-c2cn3nc(C(=O)N[C@@H](c4ccccc4)[C@@H](O)CO)cc3c(=O)[nH]2)cc1C [6-353],3.73
17,"Cc1ccc(-c2cn3nc(C(=O)NC4CCN(CC(F)F)C4)c(C4CC4)c3c(=O)[nH]2)cc1C (single isomer, unassigned) [6-454]",4.75
18,"CC(=O)N1CC(NC(=O)c2cc3c(=O)[nH]c(-c4ccc5ccccc5c4)cn3n2)(c2ccc(F)cc2)C1 [Example 1-146, N-[1-Acetyl-3-(4-fluorophenyl)azetidin-3-yl]-6-(2-naphthyl)-4-oxo-5H-pyrazolo[1,5-a]pyrazine-2-carboxamide]",4.5
19,CN1CC(NC(=O)c2nn3cc(-c4cc(F)c(Cl)c(F)c4)[nH]c(=O)c3c2C2CC2)(c2ccc(F)cc2)C1 [6-471],1.8
20,"Cc1cc(-c2cn3nc(C(=O)NCC(N)C(F)(F)F)c(C4CC4)c3c(=O)[nH]2)ccc1C(F)(F)F (single isomer, unassigned) [6-132]",7.6
21,"Cc1ccc(-c2cn3nc(C(=O)NC4(C)CCC4)cc3c(=O)[nH]2)cc1C [Example 5-5, 6-(3,4-Dimethylphenyl)-N-(1-methylcyclobutyl)-4-oxo-4,5-dihydropyrazolo[1,5-a]pyrazine-2-carboxamide]",6.7
22,C[C@@H](CN1CC(F)C1)NC(=O)c1nn2cc(-c3ccc4ccccc4c3)[nH]c(=O)c2c1C(F)(F)F [6-514],9.25
